Measurements taken from ChEMBL document CHEMBL5360532, “Current scenario of quinolone hybrids with potential antibacterial activity against ESKAPE pathogens” (Eur J Med Chem, 2023).
In brackets after ≈: the same amount, converted by molar mass.

Key:
Staphylococcus aureus [1] = assay: Antibacterial activity against Staphylococcus aureus ATCC 29213 assessed as bacterial growth inhibition measured after 24 hrs by agar disc diffusion assay; type: functional
Pseudomonas aeruginosa [2] = assay: Antibacterial activity against Pseudomonas aeruginosa ATCC 27853 assessed as bacterial growth inhibition measured after 24 hrs by agar disc diffusion assay; type: functional
Escherichia coli [3] = assay: Antibacterial activity against Escherichia coli ATCC 25922 assessed as bacterial growth inhibition measured after 24 hrs by agar disc diffusion assay; type: functional
Staphylococcus aureus [4] = assay: Antibacterial activity against methicillin resistant Staphylococcus aureus assessed as bacterial growth inhibition by agar cup diffusion assay; type: functional
Staphylococcus aureus [5] = assay: Antibacterial activity against Staphylococcus aureus assessed as bacterial growth inhibition by agar cup diffusion assay; type: functional
Escherichia coli [6] = assay: Antibacterial activity against Escherichia coli clinical isolate assessed as zone of inhibition at 50 mg/ml by agar diffusion assay; type: functional; details: read-out: IZ
Escherichia coli [7] = assay: Antibacterial activity against Escherichia coli ATCC 25922 assessed as zone of inhibition at 50 mg/ml by agar diffusion assay; type: functional; details: read-out: IZ
Staphylococcus aureus [8] = assay: Antibacterial activity against Staphylococcus aureus clinical isolate assessed as zone of inhibition at 50 mg/ml by agar diffusion assay; type: functional; details: read-out: IZ
Staphylococcus aureus [9] = assay: Antibacterial activity against Staphylococcus aureus ATCC 25923 assessed as zone of inhibition at 50 mg/ml by agar diffusion assay; type: functional; details: read-out: IZ
[10] = test system: Mycobacterium tuberculosis; assay: Antimycobacterial activity against pan sensitive Mycobacterium tuberculosis R2012-123 assessed as bacterial growth inhibition by agar cup diffusion assay; type: functional
Escherichia coli [11] = assay: Antibacterial activity against Escherichia coli assessed as bacterial growth inhibition by agar cup diffusion assay; type: functional
Klebsiella pneumoniae [12] = assay: Antibacterial activity against Klebsiella pneumoniae assessed as bacterial growth inhibition by agar cup diffusion assay; type: functional
Staphylococcus aureus [13] = assay: Potency index, ratio of ciprofloxacin MIC to test compound MIC for antimicrobial activity against Staphylococcus aureus assessed as bacterial growth inhibition by agar cup diffusion assay; type: functional
[14] = test system: Mycobacterium tuberculosis; assay: Antimycobacterial activity against Mycobacterium tuberculosis H37Rv assessed as bacterial growth inhibition by agar cup diffusion assay; type: functional
Pseudomonas aeruginosa [15] = assay: Antibacterial activity against Pseudomonas aeruginosa assessed as bacterial growth inhibition by agar cup diffusion assay; type: functional
Escherichia coli [16] = assay: Potency index, ratio of ciprofloxacin MIC to test compound MIC for antimicrobial activity against Escherichia coli assessed as bacterial growth inhibition by agar cup diffusion assay; type: functional
Staphylococcus aureus [17] = assay: Antibacterial activity against Staphylococcus aureus ATCC 25923 assessed as bacterial growth inhibition measured after 18 to 24 hrs by agar dilution assay; type: functional; details: time 18-24 hrs
Staphylococcus aureus [18] = assay: Potency index, ratio of ciprofloxacin MIC to test compound MIC for antibacterial activity against Staphylococcus aureus ATCC 25923 assessed as bacterial growth inhibition measured after 18 to 24 hrs by agar dilution assay; type: functional; details: time 18-24 hrs
Klebsiella pneumoniae [19] = assay: Antibacterial activity against Klebsiella pneumoniae AUMC B-77 assessed as bacterial growth inhibition by agar cup diffusion method; type: functional
Aspergillus niger [20] = assay: Antifungal activity against Aspergillus niger assessed as fungal growth inhibition by agar cup diffusion assay; type: functional
Aspergillus fumigatus = assay: Antifungal activity against Aspergillus fumigatus assessed as fungal growth inhibition by agar cup diffusion assay; type: functional
Escherichia coli [21] = assay: Antibacterial activity against Escherichia coli assessed as bacterial growth inhibition by broth microdilution assay; type: functional
Staphylococcus aureus [22] = assay: Antibacterial activity against Staphylococcus aureus assessed as bacterial growth inhibition by broth microdilution assay; type: functional
Staphylococcus aureus [23] = assay: Potency index, ratio of norfloxacin MIC to test compound MIC for antimicrobial activity against Staphylococcus aureus assessed as bacterial growth inhibition measured after 18 to 24 hrs inhibition by broth microdilution assay; type: functional; details: time 18-24 hrs
Candida albicans = assay: Antifungal activity against Candida albicans assessed as fungal growth inhibition by agar well diffusion assay; type: functional
Aspergillus niger [24] = assay: Antifungal activity against Aspergillus niger assessed as fungal growth inhibition by agar well diffusion assay; type: functional
[25] = Anticancer activity against EAC cell assessed as cell growth inhibition measured after 24 to 72 hrs by MTT assay; type: functional, cell-based; details: Ehrlich
WRL68 = assay: Anticancer activity against human WRL68 cell assessed as cell growth inhibition measured after 24 to 72 hrs by MTT assay; type: functional, cell-based
HT-29 = assay: Anticancer activity against human HT-29 cell assessed as cell growth inhibition measured after 24 to 72 hrs by MTT assay; type: functional, cell-based
Klebsiella pneumoniae [26] = assay: Antibacterial activity against Klebsiella pneumoniae assessed as bacterial growth inhibition by agar streak dilution assay; type: functional
Escherichia coli [27] = assay: Antibacterial activity against Escherichia coli assessed as bacterial growth inhibition by agar streak dilution assay; type: functional
Staphylococcus aureus [28] = assay: Antibacterial activity against Staphylococcus aureus assessed as bacterial growth inhibition by agar streak dilution assay; type: functional
[29] = test system: Mycobacterium tuberculosis; assay: Antimycobacterial activity against Mycobacterium tuberculosis H37Rv assessed as bacterial growth inhibition by broth microdilution assay; type: functional
Haemophilus influenzae = assay: Antibacterial activity against Haemophilus influenzae assessed as bacterial growth inhibition measured after 16 to 24 hrs by broth microdilution assay; type: functional; details: time 16-24 hrs
Staphylococcus aureus [30] = assay: Antibacterial activity against Staphylococcus aureus assessed as bacterial growth inhibition measured after 16 to 24 hrs by broth microdilution assay; type: functional; details: time 16-24 hrs
Enterococcus = assay: Antibacterial activity against vancomycin resistant Enterococcus assessed as bacterial growth inhibition measured after 16 to 24 hrs by broth microdilution assay; type: functional; details: time 16-24 hrs
Streptococcus agalactiae = assay: Antibacterial activity against Streptococcus agalactiae assessed as bacterial growth inhibition measured after 16 to 24 hrs by broth microdilution assay; type: functional; details: time 16-24 hrs
Staphylococcus aureus [31] = assay: Antibacterial activity against methicillin resistant Staphylococcus aureus assessed as bacterial growth inhibition measured after 16 to 24 hrs by broth microdilution assay; type: functional; details: time 16-24 hrs
Staphylococcus aureus [32] = assay: Antibacterial activity against Staphylococcus aureus assessed as bacterial growth inhibition by agar dilution assay; type: functional
Acinetobacter baumannii = assay: Antibacterial activity against Acinetobacter baumannii assessed as bacterial growth inhibition by agar dilution assay; type: functional
Staphylococcus aureus [33] = assay: Antibacterial activity against Staphylococcus aureus ATCC 6538P assessed as bacterial growth inhibition by two fold microdilution assay; type: functional
Klebsiella pneumoniae [34] = assay: Antibacterial activity against Klebsiella pneumoniae assessed as bacterial growth inhibition by two fold microdilution assay; type: functional
Pseudomonas aeruginosa [35] = assay: Antibacterial activity against Pseudomonas aeruginosa assessed as bacterial growth inhibition by broth microdilution assay; type: functional
Escherichia coli [36] = assay: Antibacterial activity against Escherichia coli ATCC 8739 assessed as bacterial growth inhibition by two fold microdilution assay; type: functional
Pseudomonas aeruginosa [37] = assay: Antibacterial activity against Pseudomonas aeruginosa ATCC 27853 assessed as bacterial growth inhibition by agar dilution assay; type: functional
Staphylococcus aureus [38] = assay: Antibacterial activity against methicillin resistant Staphylococcus aureus assessed as bacterial growth inhibition by agar dilution assay; type: functional

COC(=O)[C@H](C)NC(=O)c1cc(=O)n(Cc2cn(C3O[C@H]4OC(C)(C)O[C@H]4[C@@H]4OC(C)(C)OC[C@@H]34)nn2)c2ccccc12 (stereo not given in full)
MIC (Staphylococcus aureus [1]): 9.75 µg/mL (≈ 16.3 µM) | MIC (Pseudomonas aeruginosa [2]): 9.75 µg/mL (≈ 16.3 µM) | MIC (Escherichia coli [3]): 9.75 µg/mL (≈ 16.3 µM)

O=C(O)c1cn(C2CC2)c2cc(N3CCN(C(=O)CN4C(=O)S/C(=C\c5ccccc5)C4=O)CC3)c(F)cc2c1=O
MIC (Staphylococcus aureus [4]): 0.02 µg/mL (≈ 0.0347 µM) | MIC (Staphylococcus aureus [5]): 0.005 µg/mL (≈ 0.00867 µM)

COC(=O)c1cn(C2CC2)c2cc(N3CCN(C(=O)c4nnn(-c5ccc(OC)cc5)c4N)CC3)c(F)cc2c1=O
zone of inhibition at 50000 µg/mL (Escherichia coli [6]): 26.3 mm | zone of inhibition at 50000 µg/mL (Escherichia coli [7]): 26.3 mm | zone of inhibition at 50000 µg/mL (Staphylococcus aureus [8]): 26.3 mm | zone of inhibition at 50000 µg/mL (Staphylococcus aureus [9]): 26.3 mm

O=C(CN1CCN(c2cc3c(cc2F)c(=O)c(C(=O)O)cn3C2CC2)CC1)Nc1nnc(-c2ccccc2)s1
MIC [10]: 8 µg/mL (≈ 14.6 µM) | MIC (Escherichia coli [11]): 1.12 µg/mL (≈ 2.04 µM) | MIC (Klebsiella pneumoniae [12]): 1.12 µg/mL (≈ 2.04 µM) | Ratio (Staphylococcus aureus [13]): 4.6 | MIC [14]: 8 µg/mL (≈ 14.6 µM) | MIC (Staphylococcus aureus [5]): 1.12 µg/mL (≈ 2.04 µM) | MIC (Pseudomonas aeruginosa [15]): 7.4 µg/mL (≈ 13.5 µM) | Ratio (Escherichia coli [16]): 4.6

CCOC(=O)c1cn(C2CC2)c2cc(N3CCN(Cc4cn(-c5ccc(C(C)=O)cc5)nn4)CC3)c(F)cc2c1=O
MIC (Staphylococcus aureus [17]): 3.12 µg/mL (≈ 5.59 µM) | Ratio (Staphylococcus aureus [18]): 2

CCn1cc(C(=O)O)c(=O)c2cc(F)c(N3CCN(CC(=O)Nc4ccc(/C(C)=N/O)cc4)CC3)cc21
MIC (Klebsiella pneumoniae [19]): 0.08 µg/mL (≈ 0.157 µM)

Nc1ccc(-c2nnc(-c3cn(C4CC4)c4cc(C(=O)c5ncc[nH]5)c(F)cc4c3=O)o2)c(O)c1
MIC (Aspergillus niger [20]): 9.8 µg/mL (≈ 20.7 µM) | MIC (Aspergillus fumigatus): 9.8 µg/mL (≈ 20.7 µM) | MIC (Escherichia coli [11]): 0.2 µg/mL (≈ 0.423 µM) | MIC (Pseudomonas aeruginosa [15]): 0.2 µg/mL (≈ 0.423 µM)

O=C(O)c1cn(C2CC2)c2cc(N3CCN(Cc4nnc(-c5ccc(O)cc5)o4)CC3)c(F)cc2c1=O
MIC (Escherichia coli [21]): ≤ 0.125 µg/mL | MIC (Staphylococcus aureus [22]): 0.125 µg/mL (≈ 0.247 µM) | Ratio (Staphylococcus aureus [23]): >=4 | Ratio (Staphylococcus aureus [13]): >=4 | MIC (Staphylococcus aureus [5]): 0.2 µg/mL (≈ 0.396 µM)

Clc1ccccc1C(c1ccccc1)(c1ccccc1)n1ccnc1 [CLOTRIMAZOLE]
MIC (Candida albicans): 1.28 µg/mL (≈ 3.71 µM) | MIC (Aspergillus niger [24]): 1.56 µg/mL (≈ 4.52 µM)

COc1cccc2c1C(=O)c1c(O)c3c(c(O)c1C2=O)C[C@@](O)(C(=O)CO)C[C@@H]3O[C@H]1C[C@H](N)[C@H](O)[C@H](C)O1 [DOXORUBICIN]
IC50 [25]: 259 nM | IC50 (WRL68): 259 nM | IC50 (HT-29): 259 nM

Cc1c(F)c(N2CCNC(C)C2)cc2c1c(=O)c(C(=O)O)cn2C1CC1 (stereo not given) [GREPAFLOXACIN]
MIC (Klebsiella pneumoniae [26]): 0.5 µg/mL (≈ 1.39 µM) | MIC (Escherichia coli [27]): 0.5 µg/mL (≈ 1.39 µM) | MIC (Staphylococcus aureus [28]): 0.5 µg/mL (≈ 1.39 µM)

NNC(=O)c1ccncc1 [ISONIAZID]
MIC [29]: 1.5 µg/mL (≈ 10.9 µM)

CC(=O)NC[C@H]1CN(c2ccc(N3CCOCC3)c(F)c2)C(=O)O1 [LINEZOLID]
MIC (Haemophilus influenzae): 1 µg/mL (≈ 2.96 µM) | MIC (Staphylococcus aureus [30]): 1 µg/mL (≈ 2.96 µM) | MIC (Enterococcus): 1 µg/mL (≈ 2.96 µM) | MIC (Streptococcus agalactiae): 1 µg/mL (≈ 2.96 µM) | MIC (Staphylococcus aureus [31]): 1 µg/mL (≈ 2.96 µM)

CCn1cc(C(=O)O)c(=O)c2cc(F)c(N3CCNCC3)cc21 [NORFLOXACIN]
MIC (Escherichia coli [21]): ≤ 0.125 µg/mL | MIC (Staphylococcus aureus [32]): ≥ 4 µg/mL | MIC (Staphylococcus aureus [22]): ≤ 0.125 µg/mL | MIC (Acinetobacter baumannii): ≥ 4 µg/mL | MIC (Staphylococcus aureus [33]): ≤ 0.125 µg/mL | MIC (Klebsiella pneumoniae [34]): ≤ 0.125 µg/mL | MIC (Klebsiella pneumoniae [19]): 0.5 µg/mL (≈ 1.57 µM) | MIC (Pseudomonas aeruginosa [35]): ≤ 0.125 µg/mL | MIC (Escherichia coli [36]): ≤ 0.125 µg/mL | MIC (Pseudomonas aeruginosa [37]): ≥ 4 µg/mL | MIC (Staphylococcus aureus [38]): ≥ 4 µg/mL

CO[C@H]1/C=C/O[C@@]2(C)Oc3c(C)c(O)c4c(O)c(c(/C=N/N5CCN(C)CC5)c(O)c4c3C2=O)NC(=O)/C(C)=C\C=C\[C@H](C)[C@H](O)[C@@H](C)[C@@H](O)[C@@H](C)[C@H](OC(C)=O)[C@@H]1C [RIFAMPIN]
MIC [29]: 1 µg/mL (≈ 1.22 µM)
